# Positions count from the first letter of the chain named.
# Key:
# [1] = target: T1, Androgen Receptor, MDA-PCa-2b (AR T878A/L702H) (Homo sapiens, UniProt P10275, L702H/T878A); test: Androgen Receptor Degradation-Imaging Assay, MDA-PCa-2b cell line; type: cell-based; conditions: 16 hours treatment, maximum observed degradation
# T1 construct: host or cells: MDA-PCa-2b
# T1 sequence (P10275 1-920 L702H/T878A): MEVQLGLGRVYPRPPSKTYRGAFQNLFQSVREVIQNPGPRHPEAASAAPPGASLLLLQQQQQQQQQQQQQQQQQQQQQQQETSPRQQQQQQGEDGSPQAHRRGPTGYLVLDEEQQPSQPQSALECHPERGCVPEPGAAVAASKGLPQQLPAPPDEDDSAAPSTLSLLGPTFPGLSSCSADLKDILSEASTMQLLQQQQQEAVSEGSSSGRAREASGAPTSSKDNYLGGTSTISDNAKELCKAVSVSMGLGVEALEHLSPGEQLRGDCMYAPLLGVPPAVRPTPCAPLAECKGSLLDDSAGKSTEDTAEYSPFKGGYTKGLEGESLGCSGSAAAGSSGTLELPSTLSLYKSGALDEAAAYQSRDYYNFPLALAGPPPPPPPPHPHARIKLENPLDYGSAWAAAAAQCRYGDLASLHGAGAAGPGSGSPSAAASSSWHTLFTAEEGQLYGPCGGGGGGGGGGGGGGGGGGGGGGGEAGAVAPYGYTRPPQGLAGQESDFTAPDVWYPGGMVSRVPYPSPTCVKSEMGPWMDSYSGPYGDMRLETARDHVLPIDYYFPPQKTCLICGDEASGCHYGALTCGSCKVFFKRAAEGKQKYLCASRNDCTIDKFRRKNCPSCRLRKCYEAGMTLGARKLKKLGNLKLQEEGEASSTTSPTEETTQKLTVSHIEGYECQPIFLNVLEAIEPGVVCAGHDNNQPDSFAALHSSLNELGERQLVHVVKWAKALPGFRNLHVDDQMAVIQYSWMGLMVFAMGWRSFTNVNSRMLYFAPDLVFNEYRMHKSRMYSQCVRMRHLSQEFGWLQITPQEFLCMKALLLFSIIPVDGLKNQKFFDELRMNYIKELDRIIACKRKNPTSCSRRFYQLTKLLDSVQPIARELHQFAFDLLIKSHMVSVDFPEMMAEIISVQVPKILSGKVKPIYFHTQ
# [2] = target: T2, Androgen Receptor, VCaP (AR wild type and amplified) (Homo sapiens, UniProt P10275); test: Androgen Receptor Degradation-Imaging Assay, VCaP cell line; type: cell-based; conditions: 16 hours treatment, maximum observed degradation
# T2 construct: endogenous in cells; host or cells: VCaP
# T2 sequence (P10275 1-920): T1 sequence (P10275 1-920 L702H/T878A) with H702L, A878T
smiles,measurement,setting,value
"CC1(C)[C@H](NC(=O)c2ccc(N3CCC(CN4CCC(n5ncc6c(N7CCC(=O)NC7=O)nccc65)CC4)CC3)c(F)c2)C(C)(C)[C@H]1Oc1ccc(C#N)c2ncccc12 [Example 39, N-((1r,3r)-3-((8-Cyanoquinolin-5-yl)oxy)-2,2,4,4-tetramethylcyclobutyl)-4-(4-((4-(4-(2,4-dioxotetrahydropyrimidin-1(2H)-yl)-1H-pyrazolo[4,3-c]pyridin-1-yl)piperidin-1-yl)methyl)piperidin-1-yl)-3-fluorobenzamide]",Dmax,[1],≥ 80%
same,Dmax,[2],≥ 80%

# Source: patent publication US12577231B2, “Androgen receptor PROTACS” (GlaxoSmithKline Intellectual Property Development Limited, priority 2023, dated 2026)
